# In patent US7405314B2 (priority 2004, dated 2008):
# Assays:
# [1] = tested on: panel of 60 tumor cell lines; format: cell-based, human
# [2] = tested on: HL60 human leukemia cells; format: cell-based
# [3] = tested on: HL60 cells; format: cell-based, human
# [4] = tested on: U937/PR9 cells (PML/RAR alpha); format: cell-based, human
# [5] = tested on: normal donor cells
# [6] = tested on: Swiss Webster mice; conditions: mouse, in vivo
# [7] = tested on: mice; conditions: mouse, in vivo
structure (smiles),measurement,setting,value
"C[As](C)SC[C@H](NC(=O)CC[C@H](N)C(=O)O)C(=O)NCC(=O)O [SGLU1, S-(Dimethylarsino) Glutathione]",anticancer activity against tumor cell line panel,[1],evidence of activity at low concentrations
same,"induction of apoptosis (annexin V staining), events involved",[2],involves change of the potential of mitochondrial membrane (CMXRos staining) and activation of caspases
same,cell cycle disturbance,[3],marked accumulation of cells in S-phase
same,influence of functional PML/Rar alpha gene on sensitivity of the cells,[4],no influence on the sensitivity
same,toxicity to normal cells compared with arsenic trioxide,[5],less toxic then arsenic trioxide
same,tolerability,[6],tolerated
same,doses at which deaths occurred,"[7]; both, iv","250, 300, and 350 mg/kg/day"
same,no-observable-effect level for female mice,"[7]; female, iv",150 mg/kg
same,no-observable-effect level (NOEL) for male mice,"[7]; male, iv",100 mg/kg/day
same,"testicular seminiferous tubular degeneration, incidence",[7]; 150 mg/kg/day,⅕
same,"centrilobular hypertrophy of hepatocytes, incidence",[7]; 200 mg/kg/day,⅕
same,organs with compound-related lesions,[7]; iv,"lung, liver, thymus, and testes"
same,sex difference in susceptibility (deaths),[7]; iv,female mice being more susceptible than males
